Measurements from US12421245B2, “Pharmaceutically acceptable acid salt of free base of GLP1 receptor agonist, and preparation method therefor” (Hangzhou Zhongmei Huadong Pharmaceutical Co., Ltd., priority 2020, dated 2025).
Structures can show the parent of a compound that is named as a salt.

How the values were obtained:
Format in all cases: physicochemical
[1] = Assessment of pH solubility of crystalline salts in buffers
Protocol: 1) Assessment of pH Solubility The solubility of crystal form B of hydrochloride, crystal form C of p-toluenesulfonate, crystal form C of sulfate, and crystal form C of hydrobromide under different pH conditions were determined and compared, and the results were shown in Table 8. All the crystalline salts had low solubility in buffers of pH 3.0 and 5.0.

[2] = Hygroscopicity, dynamic moisture adsorption (DVS) test; details: for Moisture adsorption rate: DVS, 25° C., 80% RH; for Change of crystal form, yes/no: before and after the DVS test
Protocol: 5. Dynamic moisture adsorption (DVS):
Dynamic moisture adsorption (DVS) curves were collected on DVS Intrinsic of Surface Measurement Systems (SMS). The relative humidity at 25° C. was corrected with the deliquescent points of LiCl, Mg (NO3) 2 and KCl.
Five crystalline salts were subject to DVS test (25° C., 80% RH).

[3] = Assessment of solid stability (XRPD and HPLC after storage); details: for Change of crystal form, yes/no: XRPD after 40° C./100% RH/7 d; for HPLC (area %) 40° C./100% RH/7 d: after 40° C./100% RH for 1 week; for HPLC (area %) Initiation: initial, before storage; for Stability relative to OAD2 dihydrochloride (in words): summary statement
Protocol: The stability of crystal form B of hydrochloride, crystal form C of sulfate, crystal form C of p-toluenesulfonate and compound I was compared. After placement under a 40° C./100% RH condition for 1 week, physical and chemical stability was assessed by means of XRPD and HPLC, respectively, and the results were shown in Table 10.

Solubility ([1]; pH 1.0) [µg/mL] | Solubility ([1]; pH 2.0) [µg/mL] | Solubility ([1]; pH 3.0) [µg/mL] | Solubility ([1]; pH 5.0) [µg/mL] | Solubility ([1]; pH 7.0) [µg/mL] | Moisture adsorption rate [2] [%] | Change of crystal form, yes/no [2] | Change of crystal form, yes/no [3] | HPLC (area %) 40° C./100% RH/7 d [3] [area %] | HPLC (area %) Initiation [3] [area %] | Solid stability (in words) ([3]; 40° C./100% RH, 1 week) | Moisture adsorption rate ([2]; dihydrochloride) [%] | SMILES | Stability relative to OAD2 dihydrochloride (in words) [3] | Solubility compared with other crystalline salts (in words) ([1]; buffer of pH 1.0)
811 | 74 | 1 | 1 | 96 | 3.2 | No | No | 98.78 | 98.85 |  |  | CC[C@@H](c1ccccc1)N1Cc2cc3c(cc2C[C@H]1C(=O)N[C@@H](Cc1ccc(-c2ccnc(C)c2C)cc1)C(=O)O)OC[C@H](c1ccc(OCc2ccc(Cl)c(Cl)c2)cc1)O3 [Crystal form C of sulfate, (S)-2-(3S,8S)-3-(4-(3,4-dichlorobenzyloxy)phenyl-7-((S)-1-phenylpropyl)-2,3,6,7,8,9-hexahydro-[1,4]-dioxino[2,3-g]isoquinolin-8-ylformylamino)-3-(4-(2,3-dimethylpyridin-4-yl)phenyl)propionic acid] | superior stability relative to OAD2 dihydrochloride | 
 |  |  |  |  |  |  |  |  |  |  | 8.3 | CC[C@@H](c1ccccc1)N1Cc2cc3c(cc2C[C@H]1C(=O)N[C@@H](Cc1ccc(-c2ccnc(C)c2C)cc1)C(=O)O)OC[C@H](c1ccc(OCc2ccc(Cl)c(Cl)c2)cc1)O3 [OAD2 dihydrochloride, (S)-2-(3S,8S)-3-(4-(3,4-dichlorobenzyloxy)phenyl-7-((S)-1-phenylpropyl)-2,3,6,7,8,9-hexahydro-[1,4]-dioxino[2,3-g]isoquinolin-8-ylformylamino)-3-(4-(2,3-dimethylpyridin-4-yl)phenyl)propionic acid dihydrochloride, reference compound] |  | 

The next lines start with the compound.

SMILES | Solubility ([1]; pH 1.0) [µg/mL] | Solubility ([1]; pH 2.0) [µg/mL] | Solubility ([1]; pH 3.0) [µg/mL] | Solubility ([1]; pH 5.0) [µg/mL] | Solubility ([1]; pH 7.0) [µg/mL] | Moisture adsorption rate [2] [%] | Change of crystal form, yes/no [2] | Change of crystal form, yes/no [3] | HPLC (area %) 40° C./100% RH/7 d [3] [area %] | HPLC (area %) Initiation [3] [area %] | Solid stability (in words) ([3]; 40° C./100% RH, 1 week) | Moisture adsorption rate ([2]; dihydrochloride) [%] | Stability relative to OAD2 dihydrochloride (in words) [3] | Solubility compared with other crystalline salts (in words) ([1]; buffer of pH 1.0)
CC[C@@H](c1ccccc1)N1Cc2cc3c(cc2C[C@H]1C(=O)N[C@@H](Cc1ccc(-c2ccnc(C)c2C)cc1)C(=O)O)OC[C@H](c1ccc(OCc2ccc(Cl)c(Cl)c2)cc1)O3 [Crystal form B of hydrochloride, (S)-2-(3S,8S)-3-(4-(3,4-dichlorobenzyloxy)phenyl-7-((S)-1-phenylpropyl)-2,3,6,7,8,9-hexahydro-[1,4]-dioxino[2,3-g]isoquinolin-8-ylformylamino)-3-(4-(2,3-dimethylpyridin-4-yl)phenyl)propionic acid] | 381 | 17 | 2 | 1 | 109 | 0.8 | No | No | 98.18 | 98.37 |  |  | superior stability relative to OAD2 dihydrochloride | 
CC[C@@H](c1ccccc1)N1Cc2cc3c(cc2C[C@H]1C(=O)N[C@@H](Cc1ccc(-c2ccnc(C)c2C)cc1)C(=O)O)OC[C@H](c1ccc(OCc2ccc(Cl)c(Cl)c2)cc1)O3 [Crystal form C of hydrobromide, (S)-2-(3S,8S)-3-(4-(3,4-dichlorobenzyloxy)phenyl-7-((S)-1-phenylpropyl)-2,3,6,7,8,9-hexahydro-[1,4]-dioxino[2,3-g]isoquinolin-8-ylformylamino)-3-(4-(2,3-dimethylpyridin-4-yl)phenyl)propionic acid] | 496 | 16 | 1 | 4 | 39 | 1.4 | No |  |  |  |  |  |  | 
CC[C@@H](c1ccccc1)N1Cc2cc3c(cc2C[C@H]1C(=O)N[C@@H](Cc1ccc(-c2ccnc(C)c2C)cc1)C(=O)O)OC[C@H](c1ccc(OCc2ccc(Cl)c(Cl)c2)cc1)O3 [Crystal form C of p-toluenesulfonate, (S)-2-(3S,8S)-3-(4-(3,4-dichlorobenzyloxy)phenyl-7-((S)-1-phenylpropyl)-2,3,6,7,8,9-hexahydro-[1,4]-dioxino[2,3-g]isoquinolin-8-ylformylamino)-3-(4-(2,3-dimethylpyridin-4-yl)phenyl)propionic acid] | 1423 | 118 | 1 | 1 | 93 | 0.6 | No | No | 98.87 | 98.85 | the best stability |  | superior stability relative to OAD2 dihydrochloride | significantly higher solubility than other crystalline salts
